Consider 14 compounds from ChEMBL document CHEMBL2375342, “Novel 5-(benzyloxy)pyridin-2(1H)-one derivatives as potent c-Met inhibitors” (Bioorg Med Chem Lett, 2013).

The structures appear in SMILES notation. Calls of active or inactive are those of the source. The calls are words filed in the database; no cut-off is given here. Bounds are passed on as bounds.

For assay [1], the target named is T1, Hepatocyte growth factor receptor (Homo sapiens, UniProt P08581). The assay is described as follows: Inhibition of c-MET (unknown origin) at 1 uM after 60 mins by ELISA. (In general: ELISA stands for enzyme-linked immunosorbent assay.)
The nature of assay [2]: Antiproliferative activity in human EBC1 cells overexpressing c-MET after 72 hrs by sulforhodamine B assay. The format is functional, cell-based. The note with it: EBC-1, 72 h. A general note: Sulforhodamine B stains cellular protein and so reports cell mass.
For assay [3], the target named is T1, Hepatocyte growth factor receptor. The assay is described as follows: Inhibition of c-MET (unknown origin) at 10 uM after 60 mins by ELISA relative to control.
Assay [4] concerns the target Fibroblast growth factor receptor 1 (Homo sapiens, UniProt P11362). The assay is described as follows: Inhibition of FGFR1 (unknown origin).
Assay [5] has as its target Epidermal growth factor receptor (Homo sapiens, UniProt P00533). The assay is described as follows: Inhibition of EGFR (unknown origin).
Assay [6] has as its target Epidermal growth factor receptor (Homo sapiens, UniProt P00533, L858R/T790M). The assay is described as follows: Inhibition of EGFR T790M/L858R double mutant (unknown origin). It is filed as protein assay.
Assay [7] deals with Vascular endothelial growth factor receptor 1 (Homo sapiens, UniProt P17948). Kind of assay: Inhibition of FLT1 (unknown origin).
Assay [8] addresses Receptor tyrosine-protein kinase erbB-4 (Homo sapiens, UniProt Q15303). The assay is described as follows: Inhibition of ERBB4 (unknown origin).
The target in assay [9] is Proto-oncogene tyrosine-protein kinase receptor Ret (Homo sapiens, UniProt P07949). The assay is described as follows: Inhibition of RET (unknown origin).
The target of assay [10] is Platelet-derived growth factor receptor alpha (Homo sapiens, UniProt P16234). Kind of assay: Inhibition of PDGFRalpha (unknown origin).
Assay [11] concerns the target Vascular endothelial growth factor receptor 2 (Homo sapiens, UniProt P35968). The assay is described as follows: Inhibition of KDR (unknown origin).
The target of assay [12] is Tyrosine-protein kinase ABL1 (Homo sapiens, UniProt P00519). Kind of assay: Inhibition of ABL (unknown origin).
For assay [13], the target named is Receptor tyrosine-protein kinase erbB-2 (Homo sapiens, UniProt P04626). The assay is described as follows: Inhibition of ERBB2 (unknown origin).
Assay [14] addresses T2, Tyrosine-protein kinase receptor TYRO3 (Homo sapiens, UniProt Q06418).
T2 sequence (Q06418 whole entry): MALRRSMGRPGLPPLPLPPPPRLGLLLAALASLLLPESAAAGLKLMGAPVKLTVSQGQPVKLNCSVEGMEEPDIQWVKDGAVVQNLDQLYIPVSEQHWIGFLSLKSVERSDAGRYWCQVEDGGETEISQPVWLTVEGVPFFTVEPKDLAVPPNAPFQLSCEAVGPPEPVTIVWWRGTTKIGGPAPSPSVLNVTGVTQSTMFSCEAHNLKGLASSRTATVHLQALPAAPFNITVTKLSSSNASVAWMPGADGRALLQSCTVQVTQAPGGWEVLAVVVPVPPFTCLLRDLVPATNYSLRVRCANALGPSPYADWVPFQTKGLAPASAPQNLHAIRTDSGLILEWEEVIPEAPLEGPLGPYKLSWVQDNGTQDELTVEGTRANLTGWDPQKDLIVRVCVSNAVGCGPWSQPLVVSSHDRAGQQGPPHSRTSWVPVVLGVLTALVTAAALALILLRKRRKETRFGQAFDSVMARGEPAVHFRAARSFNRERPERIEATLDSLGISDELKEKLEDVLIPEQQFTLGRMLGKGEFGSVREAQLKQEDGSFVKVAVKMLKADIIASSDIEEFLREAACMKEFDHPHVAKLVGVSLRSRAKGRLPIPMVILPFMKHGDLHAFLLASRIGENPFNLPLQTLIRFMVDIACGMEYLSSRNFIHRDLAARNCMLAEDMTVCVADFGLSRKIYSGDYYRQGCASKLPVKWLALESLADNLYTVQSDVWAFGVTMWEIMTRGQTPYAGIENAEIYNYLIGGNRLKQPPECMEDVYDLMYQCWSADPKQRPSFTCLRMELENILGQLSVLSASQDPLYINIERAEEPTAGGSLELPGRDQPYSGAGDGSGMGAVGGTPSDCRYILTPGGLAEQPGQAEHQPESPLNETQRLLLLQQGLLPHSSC
The assay is described as follows: Inhibition of TYRO3 (unknown origin).

Assay [15] deals with T1, Hepatocyte growth factor receptor. Kind of assay: Inhibition of c-MET (unknown origin) after 60 mins by ELISA.
For assay [16], the target named is Macrophage-stimulating protein receptor (Homo sapiens, UniProt Q04912). The assay is described as follows: Inhibition of RON (unknown origin).
Assay [17] addresses T1, Hepatocyte growth factor receptor. Kind of assay: Inhibition of c-MET (unknown origin).

T1 sequence (P08581 whole entry): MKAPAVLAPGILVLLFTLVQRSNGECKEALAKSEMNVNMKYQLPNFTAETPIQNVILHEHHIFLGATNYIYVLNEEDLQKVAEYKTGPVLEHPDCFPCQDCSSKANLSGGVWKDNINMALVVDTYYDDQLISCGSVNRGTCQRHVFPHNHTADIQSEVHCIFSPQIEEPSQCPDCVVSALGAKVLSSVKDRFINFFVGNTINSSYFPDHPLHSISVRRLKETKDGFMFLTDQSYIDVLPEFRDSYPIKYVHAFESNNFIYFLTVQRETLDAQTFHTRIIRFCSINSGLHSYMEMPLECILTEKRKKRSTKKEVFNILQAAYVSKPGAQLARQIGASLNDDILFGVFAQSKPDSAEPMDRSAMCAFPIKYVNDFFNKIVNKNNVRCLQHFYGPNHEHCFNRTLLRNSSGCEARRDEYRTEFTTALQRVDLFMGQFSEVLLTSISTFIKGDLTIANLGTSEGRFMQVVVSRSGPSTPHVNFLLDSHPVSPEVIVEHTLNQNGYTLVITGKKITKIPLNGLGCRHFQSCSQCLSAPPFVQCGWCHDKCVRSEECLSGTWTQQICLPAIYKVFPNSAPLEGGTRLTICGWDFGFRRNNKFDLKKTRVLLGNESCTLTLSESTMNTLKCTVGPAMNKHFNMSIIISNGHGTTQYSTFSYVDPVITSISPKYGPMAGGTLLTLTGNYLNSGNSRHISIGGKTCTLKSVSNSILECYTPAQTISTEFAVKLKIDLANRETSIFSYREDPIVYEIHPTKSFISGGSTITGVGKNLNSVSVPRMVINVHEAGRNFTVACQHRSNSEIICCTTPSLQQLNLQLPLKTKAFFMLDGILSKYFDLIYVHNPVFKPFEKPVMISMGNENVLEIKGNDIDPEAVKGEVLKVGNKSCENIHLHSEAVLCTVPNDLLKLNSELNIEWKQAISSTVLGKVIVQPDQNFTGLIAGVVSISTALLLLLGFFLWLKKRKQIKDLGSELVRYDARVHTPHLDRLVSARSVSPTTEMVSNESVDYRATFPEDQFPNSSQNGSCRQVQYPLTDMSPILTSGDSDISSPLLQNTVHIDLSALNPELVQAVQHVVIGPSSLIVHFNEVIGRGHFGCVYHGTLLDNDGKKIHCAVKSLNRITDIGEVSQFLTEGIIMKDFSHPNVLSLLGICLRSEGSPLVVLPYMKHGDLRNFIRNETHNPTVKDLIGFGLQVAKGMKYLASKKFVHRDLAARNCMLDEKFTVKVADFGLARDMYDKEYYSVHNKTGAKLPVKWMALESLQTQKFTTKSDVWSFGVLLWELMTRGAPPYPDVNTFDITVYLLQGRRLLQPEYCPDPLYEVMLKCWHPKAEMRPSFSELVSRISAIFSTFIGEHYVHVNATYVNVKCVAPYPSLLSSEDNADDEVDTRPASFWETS
Receptor tyrosine-protein kinase erbB-2, sequence (P04626 whole entry): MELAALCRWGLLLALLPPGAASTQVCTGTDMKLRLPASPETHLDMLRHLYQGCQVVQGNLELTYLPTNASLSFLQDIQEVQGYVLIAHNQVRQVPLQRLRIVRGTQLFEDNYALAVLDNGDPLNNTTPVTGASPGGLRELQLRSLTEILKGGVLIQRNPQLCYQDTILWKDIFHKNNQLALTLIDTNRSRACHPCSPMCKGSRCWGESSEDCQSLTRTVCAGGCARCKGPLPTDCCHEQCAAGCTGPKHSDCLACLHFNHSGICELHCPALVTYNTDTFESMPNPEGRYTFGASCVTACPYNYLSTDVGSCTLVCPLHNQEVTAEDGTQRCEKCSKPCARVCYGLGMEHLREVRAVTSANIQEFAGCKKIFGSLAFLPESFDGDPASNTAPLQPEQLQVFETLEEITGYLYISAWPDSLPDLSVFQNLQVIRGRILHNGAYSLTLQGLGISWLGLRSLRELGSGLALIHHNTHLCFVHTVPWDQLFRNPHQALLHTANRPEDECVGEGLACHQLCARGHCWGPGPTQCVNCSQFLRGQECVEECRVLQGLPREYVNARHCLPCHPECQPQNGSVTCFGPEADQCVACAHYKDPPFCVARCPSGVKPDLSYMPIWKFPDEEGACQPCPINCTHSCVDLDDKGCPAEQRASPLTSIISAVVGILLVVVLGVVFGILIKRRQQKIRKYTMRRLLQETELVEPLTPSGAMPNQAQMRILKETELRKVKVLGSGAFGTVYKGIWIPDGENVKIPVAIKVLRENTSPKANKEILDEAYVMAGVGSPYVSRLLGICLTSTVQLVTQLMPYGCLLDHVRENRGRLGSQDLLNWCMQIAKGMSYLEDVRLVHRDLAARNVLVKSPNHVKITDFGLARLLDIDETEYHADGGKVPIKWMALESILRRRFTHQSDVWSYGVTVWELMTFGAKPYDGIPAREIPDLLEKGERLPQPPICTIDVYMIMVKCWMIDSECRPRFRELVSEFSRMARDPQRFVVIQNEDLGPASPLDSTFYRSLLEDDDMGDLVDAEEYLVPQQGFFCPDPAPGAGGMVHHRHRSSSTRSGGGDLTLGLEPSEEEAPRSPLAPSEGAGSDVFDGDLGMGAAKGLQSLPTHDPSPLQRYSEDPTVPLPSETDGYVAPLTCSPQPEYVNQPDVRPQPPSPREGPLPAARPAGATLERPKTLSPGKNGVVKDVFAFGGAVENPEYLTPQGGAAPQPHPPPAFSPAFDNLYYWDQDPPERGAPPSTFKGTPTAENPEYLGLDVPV
Fibroblast growth factor receptor 1, sequence (P11362 whole entry): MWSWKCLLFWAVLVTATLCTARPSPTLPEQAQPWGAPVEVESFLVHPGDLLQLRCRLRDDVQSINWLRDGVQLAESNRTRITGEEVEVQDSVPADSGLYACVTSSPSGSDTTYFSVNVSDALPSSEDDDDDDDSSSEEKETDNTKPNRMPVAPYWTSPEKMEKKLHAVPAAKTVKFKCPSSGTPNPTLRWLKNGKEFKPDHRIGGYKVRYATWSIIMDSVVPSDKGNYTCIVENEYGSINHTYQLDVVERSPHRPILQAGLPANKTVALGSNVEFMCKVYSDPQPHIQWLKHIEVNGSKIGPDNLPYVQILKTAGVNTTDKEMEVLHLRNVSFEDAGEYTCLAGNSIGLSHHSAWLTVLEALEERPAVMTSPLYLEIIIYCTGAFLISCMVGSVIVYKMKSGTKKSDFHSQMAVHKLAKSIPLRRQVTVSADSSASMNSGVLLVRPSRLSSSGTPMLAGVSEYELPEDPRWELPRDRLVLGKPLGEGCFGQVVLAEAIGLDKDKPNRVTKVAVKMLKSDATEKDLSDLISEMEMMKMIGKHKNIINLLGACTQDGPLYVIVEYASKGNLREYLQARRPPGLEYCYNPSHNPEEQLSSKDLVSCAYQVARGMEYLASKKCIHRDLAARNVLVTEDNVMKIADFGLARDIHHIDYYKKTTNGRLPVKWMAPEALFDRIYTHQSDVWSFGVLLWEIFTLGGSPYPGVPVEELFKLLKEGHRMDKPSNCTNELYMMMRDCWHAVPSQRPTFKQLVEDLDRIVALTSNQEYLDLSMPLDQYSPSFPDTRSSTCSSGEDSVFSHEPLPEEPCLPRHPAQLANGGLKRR
Platelet-derived growth factor receptor alpha, sequence (P16234 whole entry): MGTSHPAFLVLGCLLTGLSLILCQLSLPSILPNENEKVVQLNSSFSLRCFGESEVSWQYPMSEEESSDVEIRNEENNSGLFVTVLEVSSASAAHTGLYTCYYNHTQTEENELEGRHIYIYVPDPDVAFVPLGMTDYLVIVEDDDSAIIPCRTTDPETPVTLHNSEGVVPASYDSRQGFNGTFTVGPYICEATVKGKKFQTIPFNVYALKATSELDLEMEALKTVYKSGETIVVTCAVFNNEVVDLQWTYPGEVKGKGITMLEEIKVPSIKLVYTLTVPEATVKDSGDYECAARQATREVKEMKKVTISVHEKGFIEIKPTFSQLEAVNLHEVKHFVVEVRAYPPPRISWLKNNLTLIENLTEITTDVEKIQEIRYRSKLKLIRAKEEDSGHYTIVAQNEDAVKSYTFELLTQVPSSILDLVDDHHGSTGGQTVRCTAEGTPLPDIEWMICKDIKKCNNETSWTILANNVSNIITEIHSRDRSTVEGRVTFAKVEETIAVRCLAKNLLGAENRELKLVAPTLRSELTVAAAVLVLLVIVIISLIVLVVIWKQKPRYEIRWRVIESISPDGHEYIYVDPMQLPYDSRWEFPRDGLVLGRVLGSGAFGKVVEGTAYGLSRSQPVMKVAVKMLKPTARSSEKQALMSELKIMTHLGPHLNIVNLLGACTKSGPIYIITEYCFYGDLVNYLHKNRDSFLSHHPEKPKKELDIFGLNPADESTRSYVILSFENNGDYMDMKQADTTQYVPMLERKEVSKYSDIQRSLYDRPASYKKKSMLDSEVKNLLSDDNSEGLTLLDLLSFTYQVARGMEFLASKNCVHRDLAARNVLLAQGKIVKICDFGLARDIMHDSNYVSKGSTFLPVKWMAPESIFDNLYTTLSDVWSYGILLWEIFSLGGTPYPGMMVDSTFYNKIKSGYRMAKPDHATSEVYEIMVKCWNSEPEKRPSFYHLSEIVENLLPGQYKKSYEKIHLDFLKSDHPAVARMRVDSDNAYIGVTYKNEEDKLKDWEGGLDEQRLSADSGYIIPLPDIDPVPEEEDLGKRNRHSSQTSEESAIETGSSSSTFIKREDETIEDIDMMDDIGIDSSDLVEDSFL

On to `CCN1CCN(c2ccc(NC(=O)c3cc(O[C@H](C)c4c(Cl)ccc(F)c4Cl)c[nH]c3=O)c(OC)c2)CC1`, for which the inhibition (in general, the relative decrease from the control value, in per cent) in assay [1] is “inactive”. For `C[C@@H](Oc1c[nH]c(=O)c(C(=O)Nc2cnn(C3CCNCC3)c2)c1)c1c(Cl)ccc(F)c1Cl`, in [2], the half-inhibitory concentration (IC50) – broadly, the concentration that inhibits the measured activity by half – amounted to 1 µM. Consider `COc1ncc(O[C@H](C)c2c(Cl)ccc(F)c2Cl)cc1C(=O)Nc1ccc(N2CCN(C)CC2)cc1`, for which the inhibition result in [1] was “inactive”. On to `C[C@@H](Oc1c[nH]c(=O)c(C(=O)Nc2ccc(N3CCN(C)CC3)nc2)c1)c1c(Cl)ccc(F)c1Cl`, for which, in assay [2], half-maximal inhibition (IC50) required 3.9 µM. In [3], `C[C@@H](Oc1c[nH]c(=O)c(C(=O)NC2CCN(C)CC2)c1)c1c(Cl)ccc(F)c1Cl` had an inhibition of less than 50%. Consider `C[C@@H](Oc1c[nH]c(=O)c(C(=O)Nc2ccc(N3CCN(C)CC3)cc2)c1)c1c(Cl)ccc(F)c1Cl`, for which the concentration for half-maximal inhibition (IC50) in assay [4] was greater than 1 µM; in [5], greater than 1 µM; in [6], greater than 1 µM; in assay [2], 2.2 µM; in assay [7], greater than 1 µM; in assay [8] it was greater than 1 µM. Besides, the half-inhibitory concentration (IC50) in [9] was greater than 1 µM; in assay [10], greater than 1 µM; in [11], greater than 1 µM; in assay [12] it was 0.281 µM; in [13], greater than 1 µM; in assay [14], greater than 1 µM. For the same compound, the IC50 in assay [15] came out at 0.012 µM; in assay [16], 0.446 µM. `C[C@@H](Oc1c[nH]c(=O)c(C(=O)NCc2ccc(N3CCOCC3)cc2)c1)c1c(Cl)ccc(F)c1Cl` returned an inhibition in assay [3] of less than 50%. Turning to `C[C@@H](Oc1c[nH]c(=O)c(C(=O)Nc2cnn(CCO)c2)c1)c1c(Cl)ccc(F)c1Cl`, in assay [2], the IC50 was determined as 1.1 µM. `C[C@@H](Oc1c[nH]c(=O)c(C(=O)NCc2ccc(NS(C)(=O)=O)cc2)c1)c1c(Cl)ccc(F)c1Cl` came in with an inhibition in assay [3] of less than 50%.

On to `C[C@@H](Oc1c[nH]c(=O)c(C(=O)Nc2ccc(CN3CCN(C)CC3)cc2)c1)c1c(Cl)ccc(F)c1Cl`, for which the IC50 in assay [2] amounted to 1.1 µM. Same read-out and setting: as for `C[C@@H](Oc1c[nH]c(=O)c(C(=O)Nc2ccc(OCCN3CCOCC3)cc2)c1)c1c(Cl)ccc(F)c1Cl`, the figure is 5.9 µM; as for `C[C@@H](Oc1c[nH]c(=O)c(C(=O)Nc2ccc3c(c2)CN(CCN(C)C)C3=O)c1)c1c(Cl)ccc(F)c1Cl`, 2.6 µM; as for `C[C@@H](Oc1c[nH]c(=O)c(C(=O)Nc2cnn(C)c2)c1)c1c(Cl)ccc(F)c1Cl`, 9.8 µM.

In assay [17], `C[C@@H](Oc1cc(C(=O)Nc2ccc(C(=O)N3CCN(C)CC3)cc2)nnc1N)c1c(Cl)ccc(F)c1Cl` gave a half-maximal inhibitory concentration (IC50) of 0.00069 µM.
